Experimental data reported in article PMC3673949, “Small Molecule R1498 as a Well-Tolerated and Orally Active Kinase Inhibitor for Hepatocellular Carcinoma and Gastric Cancer Treatment via Targeting Angiogenesis and Mitosis Pathways” (PLoS ONE, 2013).

How the values were obtained:
Aurora kinase A = Aurora kinase A (Homo sapiens, UniProt O14965); experiment: Z'-Lyte kinase activity assay; assay type: biochemical; conditions: mean of three independent experiments
Protocol: (§1) The affinity of R1498 against 402 kinases was determined by KINOMEScan® (Ambit Biosciences, San Diego, CA) and data were presented as dissociation constant (Kd) values. The inhibition on kinase activity of Aurora kinases and VEGFR2 was further characterized by Z’-Lyte kinase activity assays under corresponding ATP concentrations.

Aurora kinase B = Aurora kinase B (Homo sapiens, UniProt Q96GD4); experiment: Z'-Lyte kinase activity assay; assay type: biochemical; conditions: mean of three independent experiments
Protocol: as §1

VEGFR2 = VEGFR2 (Homo sapiens, UniProt P35968); experiment: Z'-Lyte kinase activity assay; assay type: biochemical; conditions: mean of three independent experiments
Protocol: as §1

HCCLM3 xenograft = experiment: Xenograft efficacy study; assay type: in vivo, BALB/C nu/nu nude mice; conditions: HCCLM3, 12.5 mg/kg twice a day per oral gavage
Protocol: Tumor cells were inoculated into the right flank of BALB/C nu/nu female nude mice (5∼6 weeks, 16∼18 g, obtained from Sino-British SIPPR/BK Lab. Animal Ltd, Shanghai, China) at optimal density based on our in-house validation study. After the tumor was established and reached 100∼150 mm^3, the mice were randomized into ten mice per group and received treatment according to the schedule. The tumor growth was recorded three times a week with the measurement of length (L) and width (W) by caliper, and calculated as tumor volume (TV, mm^3) = 0.5*L*W*W (mm). […] The tumor regression of individual mouse was defined - the tumor volume at the end was less than the tumor volume when treatment was initiated.

GC16 xenograft = experiment: Patient primary gastric tumor derived xenograft; assay type: in vivo, BALB/C nu/nu nude mice; conditions: GC16, 25 mpk bid, p.o.
Protocol: (§2) In human primary tumor models, fresh human gastric tumor tissues were directly implanted into nonobese diabetic and severe combined immune-deficient (NOD-SCID) mice within 5 hours post-surgery with 5 mm^3 fragments to establish primary tumor xenograft models. […] Treatment began when tumor volume reached 100∼150 mm^3. The tumor measurement and operation protocol was the same as cell line derived tumor model.

GC318 xenograft = experiment: Patient primary gastric tumor derived xenograft; assay type: in vivo, BALB/C nu/nu nude mice; conditions: GC318, 25 mpk bid, p.o.
Protocol: as §2

GC46 xenograft = experiment: Patient primary gastric tumor derived xenograft; assay type: in vivo, BALB/C nu/nu nude mice; conditions: GC46, 25 mpk bid, p.o.
Protocol: as §2

CD31 = experiment: Immunohistochemistry of BEL-7402 tumors, angiogenesis marker; assay type: in vivo, BALB/C nu/nu nude mice; conditions: BEL-7402 tumors from efficacy study
Protocol: (§3) The 8 µm paraffin embedded tumor tissue slides prepared from tumor of in vivo efficacy studies were heated in a dry oven at 60°C for 1 hour, then deparaffinized and hydrolyzed by Leica autostainer XL ST5010 at room temperature. Antigen retrieval was carried out at 95∼99°C in citrate buffer (0.01 M, pH 6.0) heated by a medical microwave at 92–98°C for 5 min, then cooled down to room temperature. Then peroxidase-blocking reagent (DAKO, DK-2600, Glostrup Denmark) was applied to quench the endogenous peroxidase. The slides were incubated in blocking serum for 20 min, then covered by 100 µL phospho-Aurora A (Thr288) (C39D8) rabbit mAb (CST #3079, 1∶200 in TBS/T) or rabbit anti-human CD31 polyclonal antibody (Santa Cruz Biotech, sc-8306, Santa Cruz, CA, USA; 1∶200 in TBS/T) at 4°C overnight, then incubated in 100 µL DAKO Envision+/HRP, rabbit/mouse after being washed thoroughly with TBS. One hundred micro liters of substrate-chromogenic solution (DAB) were applied to the slides and incubated at room temperature for 10 min. The slides were rinsed gently with tap water for 15 min. Counterstain and dehydration was performed by XL ST5010 at room temperature. Finally, the slides were mounted with Permount mounting medium (Fisher Scientific, Miami, FL).

phospho-Aurora A (T288) = experiment: Immunohistochemistry of BEL-7402 tumors, Aurora kinase A activity marker; assay type: in vivo, BALB/C nu/nu nude mice; conditions: BEL-7402 tumors from efficacy study
Protocol: as §3

[1] = Single dose pharmacokinetic (SDPK) study; assay type: in vivo; conditions: Nude Mouse
Protocol: Before the pharmacokinetic study, animals were randomly assigned to the sampling groups (3 animals per time point). Ten additional mice were used to collected plasma blank for calibration curves. The mice were fasted overnight before oral administration. […] The plasma samples and the dose formulation were stored at −20°C until bioanalysis. The data acquisition and control system were created using Analyst 1.4 software from ABI Inc. The concentrations in plasma below the limit of quantitation (LOQ = 1 ng/mL) were designated as zero. […] For rat, dog and monkey SDPK, the blood samples were collected from jugular vein puncture.

[2] = Dose range finding and toxicokinetic study; assay type: in vivo
Protocol: Dose range finding and toxicokinetic study was carried out in rats and Beagle dogs based on in vitro metabolites identification. Wistar rats (male: 3, female 3 in each group, from Vital River, Beijing, China) were fasted overnight, and then received test articles as 0, 6.25, 50 and 100 mg/kg twice a day per oral gavage for a 14-day continuous regimen. Motility observation was applied on a daily bases to find the maximum tolerant dose for the animals. The animals were sacrificed on d14, and the following toxicology observation were carried out including body weight changes, clinical observation, gross necropsy, hematology chemistry and histopathology. On day 1 and day 14, blood samples were obtained via jugular vein puncture from all animals (if alive, using EDTA-K2 tubes). Samples were mixed gently and placed on crushed wet-ice until centrifugation, which was carried out immediately. The samples were centrifuged for approximately 15 minutes at 4°C 2,700 rpm. The resultant plasma was separated, transferred to uniquely labeled clear polypropylene tubes and frozen immediately over solid carbon dioxide (dry ice) until transferred to approximately −80°C. Each animal was bled at the following time points: approximately 5 min, 15 min, 30 min, 1, 2, 4, 8 and 24 hours post first dose on the specific day. The drug concentrations in the plasma were determined by LC-MS/MS. The pharmacokinetic analysis was performed using WinNonlin software (Version 5.2, Pharsight Corporation, CA, USA), and the pharmacokinetic parameters were calculated using a Non-compartmental model method.
Beagle dogs (approximately 8–10 months, from Beijing Marshall Biotechnology Co. Ltd., Beijing, China) were subjected to the study protocol as described above. Each group has one male and one female dog, the dosages of test article were: 0, 1, 7.5 and 15 mg/kg, respectively.

Sequence of Aurora kinase B (Q96GD4 whole entry): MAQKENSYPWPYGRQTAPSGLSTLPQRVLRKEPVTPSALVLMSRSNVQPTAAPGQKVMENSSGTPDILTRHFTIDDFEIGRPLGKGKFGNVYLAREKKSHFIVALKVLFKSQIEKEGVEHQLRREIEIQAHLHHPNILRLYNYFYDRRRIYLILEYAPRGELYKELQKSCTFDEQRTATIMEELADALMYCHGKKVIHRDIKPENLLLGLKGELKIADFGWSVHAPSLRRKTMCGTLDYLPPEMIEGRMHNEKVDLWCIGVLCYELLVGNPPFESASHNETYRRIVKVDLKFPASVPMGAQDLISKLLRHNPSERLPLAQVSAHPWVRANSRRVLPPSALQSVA
Sequence of Aurora kinase A (O14965 whole entry): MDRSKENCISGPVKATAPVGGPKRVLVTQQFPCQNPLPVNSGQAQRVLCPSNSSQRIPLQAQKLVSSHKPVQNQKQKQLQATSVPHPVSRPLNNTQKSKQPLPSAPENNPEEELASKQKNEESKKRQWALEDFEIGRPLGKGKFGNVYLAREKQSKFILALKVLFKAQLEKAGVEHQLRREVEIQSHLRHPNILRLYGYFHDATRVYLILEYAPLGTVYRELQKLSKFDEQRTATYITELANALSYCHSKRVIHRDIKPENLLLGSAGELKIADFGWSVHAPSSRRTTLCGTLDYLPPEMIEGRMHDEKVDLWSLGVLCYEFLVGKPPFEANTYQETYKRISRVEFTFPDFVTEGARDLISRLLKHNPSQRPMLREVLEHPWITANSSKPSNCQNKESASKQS
Sequence of VEGFR2 (P35968 20-1356): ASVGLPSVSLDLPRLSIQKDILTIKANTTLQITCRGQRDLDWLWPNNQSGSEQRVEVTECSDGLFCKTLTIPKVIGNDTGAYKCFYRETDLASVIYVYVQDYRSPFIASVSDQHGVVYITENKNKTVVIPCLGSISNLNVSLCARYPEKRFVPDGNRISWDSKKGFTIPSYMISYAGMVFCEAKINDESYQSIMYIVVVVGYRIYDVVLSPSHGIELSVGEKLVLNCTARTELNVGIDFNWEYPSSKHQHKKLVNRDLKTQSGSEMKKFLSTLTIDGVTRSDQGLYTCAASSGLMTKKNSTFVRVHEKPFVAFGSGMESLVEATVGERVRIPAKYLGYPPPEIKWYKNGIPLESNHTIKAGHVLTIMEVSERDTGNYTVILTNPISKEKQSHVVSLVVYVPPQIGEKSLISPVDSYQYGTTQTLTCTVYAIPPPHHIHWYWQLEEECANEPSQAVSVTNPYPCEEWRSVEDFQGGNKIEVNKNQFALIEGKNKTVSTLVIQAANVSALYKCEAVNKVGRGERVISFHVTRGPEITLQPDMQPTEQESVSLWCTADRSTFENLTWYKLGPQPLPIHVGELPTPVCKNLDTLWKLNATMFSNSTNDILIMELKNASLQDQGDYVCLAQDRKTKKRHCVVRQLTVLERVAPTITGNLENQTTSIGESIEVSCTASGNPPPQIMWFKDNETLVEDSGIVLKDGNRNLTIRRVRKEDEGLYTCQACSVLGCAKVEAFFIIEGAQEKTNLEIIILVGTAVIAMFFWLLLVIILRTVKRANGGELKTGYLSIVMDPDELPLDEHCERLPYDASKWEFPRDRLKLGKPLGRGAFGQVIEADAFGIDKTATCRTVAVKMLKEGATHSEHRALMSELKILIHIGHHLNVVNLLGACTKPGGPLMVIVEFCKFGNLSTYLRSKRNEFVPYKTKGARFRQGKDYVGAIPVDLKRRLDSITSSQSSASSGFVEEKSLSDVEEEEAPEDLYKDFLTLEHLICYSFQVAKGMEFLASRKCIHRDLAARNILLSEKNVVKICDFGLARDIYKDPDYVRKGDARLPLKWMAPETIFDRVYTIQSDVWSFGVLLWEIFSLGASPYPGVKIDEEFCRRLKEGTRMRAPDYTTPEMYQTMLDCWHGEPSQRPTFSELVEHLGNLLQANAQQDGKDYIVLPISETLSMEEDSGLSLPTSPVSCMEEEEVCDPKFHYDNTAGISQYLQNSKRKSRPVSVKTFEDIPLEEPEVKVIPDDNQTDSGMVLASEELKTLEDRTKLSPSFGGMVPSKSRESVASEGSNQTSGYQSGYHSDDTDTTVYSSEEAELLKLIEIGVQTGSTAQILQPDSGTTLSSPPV

COc1ccc2c(c1)C(c1ccccc1Cl)=Nc1c(n[nH]c1C)N2 [R1498]
IC50 (Aurora kinase A): 0.067 ± 0.004 µM | IC50 (Aurora kinase B): 0.167 ± 0.013 µM | IC50 (VEGFR2): 0.025 ± 0.006 µM | Final TGI% (HCCLM3 xenograft; day of study termination): 81% | Body weight changes% (HCCLM3 xenograft; before vs after treatment): 15.3% | Tumor Regression (HCCLM3 xenograft; mice with regression/group): 0/10 | Regression (GC16 xenograft): 3/10 | TGI% (GC16 xenograft): 89.3% | Regression (GC318 xenograft): 1/10 | TGI% (GC318 xenograft): 91.6% | Regression (GC46 xenograft): 2/10 | TGI% (GC46 xenograft): 73.6% | CD31 staining in tumors (CD31): decreased in a dose-dependent manner | phospho-Aurora A (T288) staining in tumors (phospho-Aurora A (T288)): weaker staining | Oral BA ([1]; 10-100 mg/kg, micronized API suspension): 44-92 (10-100 mg/kg) % | clearance ([1]; male, plasma, iv, 2 mg/kg, single dose): 0.378 L/h/kg | Vd ([1]; male, plasma, iv, 2 mg/kg, single dose, read-out: Vdss): 2 L/kg | half-life ([1]; male, plasma, iv 2 mg/kg): 4 h | MTD at 2 week ([2]; both sexes, dog, in vivo, po, beagle dogs (F/M), 2-week DRF, bid dosing): > 15 mg/kg | AUC(0-t) ([2]; both sexes, dog, plasma, po, 15 mg/kg, beagle dogs, at highest dose, read-out: MTD AUC0-24): > 111 µg·h/mL | Histopathology results ([2]; dogs, 0, 1, 7.5, 15 mg/kg, 2-week DRF): no significant findings at all doses | dose at which body weight loss began ([2]; female dog): 7.5 mg/kg
